Data reported in US20090074831A1, “LOCAL […] […] OF mTOR INHIBITORS IN COMBINATION WITH PEROXISOME PROLIFERATORS-ACTIVATED RECEPTOR STIMULATORS” (priority 2007, published 2009).

How the values were obtained:
Patients [1] = experiment: MultiVitamins and Probucol (MVP) randomized clinical trial, angiographic and clinical endpoints; type: in vivo, human
Source text: It was not possible to determine with angiography alone whether probucol acted via inhibition of tissue hyperplasia or improvement in vascular remodeling. […] In addition, the invention enables the skilled practitioner to use probucol in conjunction with other percutaneous coronary interventions such as stenting if it is deemed appropriate.
The present invention concerns the IVUS substudy from the MVP restenosis trial. MVP was a double-blind placebo-controlled randomized clinical trial with four study groups. The protocol was approved by the Montreal Heart Institute institutional review board. The MVP study design, inclusion and exclusion criteria have been previously described (N Engl J Med 1997; 365-372). Briefly, patients referred for elective coronary angioplasty were evaluated at least 30 days prior to their scheduled procedure. Eligible patients were asked to provide written informed consent. Patients were eligible if they were scheduled to undergo standard balloon angioplasty on at least one native coronary artery and had at least one de novo target lesion with luminal narrowing of fifty percent or more by caliper measurements.
Beginning thirty days prior to scheduled angioplasty, patients were randomly assigned to receive either probucol alone, multivitamins alone, the combination of probucol and multivitamins, or placebo. Probucol 500 mg or matched placebo was administered twice daily. The multivitamin complex, consisting of vitamin E 700 IU, vitamin C 500 mg and beta-carotene 30,000 IU, or matched placebo was also administered in one tablet twice daily. All patients received an extra dose of probucol 1000 mg and/or vitamin E 2000 IU and/or matched placebos twelve hours before angioplasty, according to randomization assignment. […] All patients received aspirin 325 mg daily started at least thirty days before procedure and continued for the study period. Balloon angioplasty was performed according to standard techniques. Intracoronary nitroglycerin (0.3 mg) was given for each target artery for both pre- and post-dilatation angiography and at follow-up. The sequence of contrast injections with the exact degree of angulation was recorded and used for every angiogram. Coronary arteriograms (pre-, post-procedure, and final follow-up) were analyzed together using the Coronary Measurement System (CMS), as previously reported. Patient follow-up included clinical evaluation, exercise treadmill testing, blood chemistry, pill count and drug level measurements, and dietary assessment and intervention. Patients were readmitted for follow-up coronary angiography at five to seven months. […]

LDL = experiment: ex vivo copper-induced LDL peroxidation, monitoring of diene conjugates (lag phase); design: species or system human; conditions: treatment for one month; preliminary results
Source text: Dietary intervention and smoking habits were similar in all groups. Probucol may simply be a more powerful antioxidant than the combination of vitamins. To this regard, preliminary results from the continuous spectrophotometric monitoring of diene conjugates in LDL after the addition of copper ions to the isolated lipoprotein ex vivo (Free Radic Res Commun 1989; 6:67-75) of MVP patients are noteworthy.

Patients [2] = experiment: IVUS substudy of the MVP restenosis trial; type: in vivo, human
Source text: Serial intravascular ultrasound (IVUS) examinations have been performed in a consecutive series of patients involved in the MVP trial. By providing tomographic views of coronary arteries with high resolution, IVUS allows quantitative assessment of changes in arterial lumen and wall dimensions. We were therefore able in this study to determine the pathophysiology of coronary restenosis after balloon angioplasty in patients systematically undergoing follow-up IVUS examination and determine the effect of probucol on tissue hyperplasia and vascular remodeling after coronary angioplasty. The present invention concerns the IVUS substudy from the MVP restenosis trial. MVP was a double-blind placebo-controlled randomized clinical trial with four study groups. The protocol was approved by the Montreal Heart Institute institutional review board. The MVP study design, inclusion and exclusion criteria have been previously described (N Engl J Med 1997; 365-372). Briefly, patients referred for elective coronary angioplasty were evaluated at least 30 days prior to their scheduled procedure. Eligible patients were asked to provide written informed consent. […] The sequence of contrast injections with the exact degree of angulation was recorded and used for every angiogram. Coronary arteriograms (pre-, post-procedure, and final follow-up) were analyzed together using the Coronary Measurement System (CMS), as previously reported. […] Patients were readmitted for follow-up coronary angiography at five to seven months. […] IVUS imaging was monitored by an experienced cardiologist, but the angioplasty operator was blinded to ultrasound results to avoid altering standard balloon angioplasty practice. […] One angiographic view was recorded on videotape before beginning pullback of the IVUS catheter. […] Simultaneous high-resolution fluoroscopic images were recorded on the IVUS imaging screen during pullbacks to constantly know the location of the IVUS transducer. […]

In the case of `CC(C)(Sc1cc(C(C)(C)C)c(O)c(C(C)(C)C)c1)Sc1cc(C(C)(C)C)c(O)c(C(C)(C)C)c1` [Probucol Alone, 4,4′-([1-methylethylidene)bis(thio)]bis-[2,6-bis(1,1-dimethylethyl)phenol]], the “patients in whom restenosis still occurred” value (Patients [1]; probucol alone) was “over twenty”, the “reduction in restenosis rate per segment compared to placebo” value (Patients [1]; probucol given alone) was “forty-seven” and the “reduction in the need for repeat angioplasty compared to placebo” value (Patients [1]; probucol given alone, at 6 month) was “fifty-eight”. The “reduction in angiographic lumen loss compared to placebo” value (Patients [1]; probucol given alone, thirty days before and six months after angioplasty) was “sixty-eight”, the “protection against LDL oxidation (lag phase for LDL peroxidation)” value (LDL) was “significantly greater protection against LDL oxidation than vitamins alone or the combination of probucol and vitamins” and the “Lumen area (mm^2), Follow-up Post PTCA (change)” value (Patients [2]; efficacy analysis in compliant patients) was −0.15 ± 1.70 mm^2. The “Lumen area (mm^2), Follow-up Post PTCA (change)” value (Patients [2]; per segment analysis, Placebo −1.21 ± 1.88) was −0.15 ± 1.70 mm^2 and the “increase in vessel enlargement” value (Patients [2]; probucol only versus placebo (EEM 1.74 versus 0.29 mm^2)) was “seven hundred-thirty”.
